# Laboratory results reported in US9932325B2 (Denali Therapeutics Inc., priority 2015, dated 2018).
# Target: LRRK2 G2019S enzyme (Homo sapiens (Human), UniProt Q5S007, G2019S)
# Test: LRRK2 G2019S TR-FRET biochemical assay (LRRKtide substrate)
# Settings: 134 μM ATP
# Experimental: Detection Reaction Conditions • 1× TR-FRET dilution buffer • 10 mM EDTA • 2 nM antibody • 23° C. reaction temperature • 10 μL total reaction volume
# Compounds were prepared by initially diluting to 1 mM with DMSO. 35 μL of reference compound solution, 35 μL of test compound solution, and 35 μL HPE were successively added to the source plate (384-well assay plate, Labcyte). The plates were centrifuged at 2500 rpm for 1 minute and sealed in foil. […] The assay plate was centrifuged at 2500 rpm for 1 minute, and sealed with foil.
# To perform the enzyme reaction, 5 μL of LRRKtide substrate and kinase mixture in assay buffer was added to all wells of the assay plate. The plate was centrifuged to concentrate the mixture at the bottom of the wells. The assay plate was incubated at 23° C. for 20 minutes. Following incubation, 5 μL of 2× ATP in assay buffer was added to each well, and plates were centrifuged to concentrate the mixture at the bottom of the wells. The plate was incubated at 23° C. for 60 minutes.
# To perform the detection of the reaction, EDTA completely mixed in TR-FRET dilution buffer was added to antibody reagent. 10 μL of detection reagent was added to all wells of each well of the assay plate and the plate was centrifuged to concentrate the mixture at the bottom of the wells. The plate was then incubated at 23° C. for 60 minutes.
# Chain of LRRK2 G2019S enzyme (Q5S007 whole entry G2019S): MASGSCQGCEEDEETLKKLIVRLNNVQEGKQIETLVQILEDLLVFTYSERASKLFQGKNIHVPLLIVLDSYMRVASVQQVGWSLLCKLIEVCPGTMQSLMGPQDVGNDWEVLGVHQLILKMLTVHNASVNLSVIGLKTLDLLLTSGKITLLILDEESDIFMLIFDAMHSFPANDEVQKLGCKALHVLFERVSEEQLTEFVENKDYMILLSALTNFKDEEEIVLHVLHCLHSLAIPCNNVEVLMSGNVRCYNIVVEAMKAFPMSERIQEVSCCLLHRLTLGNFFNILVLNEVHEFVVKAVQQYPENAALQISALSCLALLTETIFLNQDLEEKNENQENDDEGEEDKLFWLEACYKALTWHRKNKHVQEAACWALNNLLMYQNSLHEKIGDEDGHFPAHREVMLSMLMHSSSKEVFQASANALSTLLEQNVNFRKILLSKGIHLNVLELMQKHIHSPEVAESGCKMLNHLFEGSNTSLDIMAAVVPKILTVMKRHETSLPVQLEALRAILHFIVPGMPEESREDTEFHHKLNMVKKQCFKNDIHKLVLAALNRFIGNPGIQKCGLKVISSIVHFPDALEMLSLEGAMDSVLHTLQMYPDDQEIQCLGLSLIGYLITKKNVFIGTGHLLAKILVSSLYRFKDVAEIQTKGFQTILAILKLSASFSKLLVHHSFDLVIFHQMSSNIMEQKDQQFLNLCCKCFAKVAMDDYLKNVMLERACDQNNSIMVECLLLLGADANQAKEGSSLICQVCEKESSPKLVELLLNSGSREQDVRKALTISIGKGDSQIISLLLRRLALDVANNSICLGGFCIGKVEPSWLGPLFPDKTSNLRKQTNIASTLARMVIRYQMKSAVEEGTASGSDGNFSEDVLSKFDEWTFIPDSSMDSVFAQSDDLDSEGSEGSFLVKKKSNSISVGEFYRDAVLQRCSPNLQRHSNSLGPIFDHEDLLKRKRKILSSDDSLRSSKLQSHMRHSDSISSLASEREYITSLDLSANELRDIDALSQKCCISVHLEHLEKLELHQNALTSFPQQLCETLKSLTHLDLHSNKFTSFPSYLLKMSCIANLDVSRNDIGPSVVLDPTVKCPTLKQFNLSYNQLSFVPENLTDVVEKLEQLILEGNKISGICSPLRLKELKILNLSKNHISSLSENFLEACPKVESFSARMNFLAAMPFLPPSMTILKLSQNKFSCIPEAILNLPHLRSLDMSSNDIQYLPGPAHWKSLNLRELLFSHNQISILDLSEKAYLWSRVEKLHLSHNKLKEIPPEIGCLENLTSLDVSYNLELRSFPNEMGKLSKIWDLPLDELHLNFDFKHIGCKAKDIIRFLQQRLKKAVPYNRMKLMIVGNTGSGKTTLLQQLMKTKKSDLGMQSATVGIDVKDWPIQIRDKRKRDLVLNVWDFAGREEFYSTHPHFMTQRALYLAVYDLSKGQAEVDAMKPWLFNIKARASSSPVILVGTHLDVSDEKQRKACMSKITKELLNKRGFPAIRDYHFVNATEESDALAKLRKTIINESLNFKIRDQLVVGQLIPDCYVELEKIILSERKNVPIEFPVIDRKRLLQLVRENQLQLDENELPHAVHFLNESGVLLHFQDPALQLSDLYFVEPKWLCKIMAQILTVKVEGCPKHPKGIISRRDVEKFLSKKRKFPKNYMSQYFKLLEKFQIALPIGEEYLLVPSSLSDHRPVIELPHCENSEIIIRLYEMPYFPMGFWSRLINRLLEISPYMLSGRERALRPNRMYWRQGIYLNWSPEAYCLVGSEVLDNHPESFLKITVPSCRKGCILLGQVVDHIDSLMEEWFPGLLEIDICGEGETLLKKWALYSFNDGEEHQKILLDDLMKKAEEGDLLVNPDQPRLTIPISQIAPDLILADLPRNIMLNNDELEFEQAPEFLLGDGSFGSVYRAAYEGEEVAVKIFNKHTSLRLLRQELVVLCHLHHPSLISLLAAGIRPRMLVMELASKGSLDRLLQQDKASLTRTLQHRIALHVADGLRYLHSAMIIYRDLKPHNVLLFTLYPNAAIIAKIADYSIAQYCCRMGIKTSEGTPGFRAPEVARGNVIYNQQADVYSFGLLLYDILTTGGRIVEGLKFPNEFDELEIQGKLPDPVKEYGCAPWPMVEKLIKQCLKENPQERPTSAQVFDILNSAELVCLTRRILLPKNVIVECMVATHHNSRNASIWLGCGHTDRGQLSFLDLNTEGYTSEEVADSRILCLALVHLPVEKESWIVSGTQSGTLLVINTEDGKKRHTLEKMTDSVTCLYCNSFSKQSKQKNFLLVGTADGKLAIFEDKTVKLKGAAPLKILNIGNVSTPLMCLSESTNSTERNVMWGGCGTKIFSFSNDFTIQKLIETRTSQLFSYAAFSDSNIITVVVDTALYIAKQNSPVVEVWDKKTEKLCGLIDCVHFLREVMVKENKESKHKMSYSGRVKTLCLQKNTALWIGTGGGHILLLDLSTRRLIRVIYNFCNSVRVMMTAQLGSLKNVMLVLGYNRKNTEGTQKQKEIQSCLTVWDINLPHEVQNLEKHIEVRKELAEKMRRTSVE
row,SMILES,IC50 [nM]
1,"[2H]C([2H])([2H])N1CCC(n2cc(Nc3ncc(C(F)(F)F)c(NCC)n3)c(C)n2)(C([2H])([2H])[2H])C1=O (single isomer, unassigned) [Compound 23]",< 30
2,"[2H]C([2H])([2H])N1CCC(n2cc(Nc3ncc(C(F)(F)F)c(NCC)n3)c(C)n2)(C([2H])([2H])[2H])C1=O (single isomer, unassigned) [Compound 24]",< 30
3,"CNc1nc(Nc2cnn(C3CN(C4COC4)CCC3(F)F)c2Cl)ncc1C(F)(F)F (single isomer, unassigned) [Compound 28]",< 30
4,"CNc1nc(Nc2cnn(C3CN(C4COC4)CCC3(F)F)c2Cl)ncc1C(F)(F)F (single isomer, unassigned) [Compound 29]",< 30
5,"CNc1nc(Nc2cnn(C3CCCC3(C)O)c2C)ncc1C(F)(F)F (single isomer, unassigned) [Compound 30]",30 to 60
6,"CNc1nc(Nc2cnn(C3CCCC3(C)O)c2C)ncc1C(F)(F)F (single isomer, unassigned) [Compound 31]",30 to 60
7,"CCNc1nc(Nc2cnn3c2CC(n2nccn2)C3)ncc1C(F)(F)F (single isomer, unassigned) [Compound 54A]",< 30
8,"CCNc1nc(Nc2cnn3c2CC(n2nccn2)C3)ncc1C(F)(F)F (single isomer, unassigned) [Compound 54B]",< 30
9,"COc1nc(Nc2cn(C3(C)CCNC3=O)nc2C)ncc1Br (single isomer, unassigned) [Compound 64A]",< 30
10,"COc1nc(Nc2cn(C3(C)CCNC3=O)nc2C)ncc1Br (single isomer, unassigned) [Compound 64B]",< 30
11,"COc1nc(Nc2cn(C3(C)CCOC3=O)nc2C)ncc1Br (single isomer, unassigned) [Compound 90]",< 30
12,"CNc1nc(Nc2cn(C3(C)CCOC3=O)nc2Cl)ncc1C(F)(F)F (single isomer, unassigned) [Compound 99]",< 30
13,"COc1nc(Nc2cn(C3(C)CCOC3=O)nc2C)ncc1Br (single isomer, unassigned) [Compound 102]",< 30
14,"CCNc1nc(Nc2cn(C3(C)CCOC3=O)nc2C2CC2)ncc1Br (single isomer, unassigned) [Compound 115]",< 30
15,"CNc1nc(Nc2cn(C3(C)CCOC3=O)nc2C)ncc1C(F)(F)F (single isomer, unassigned) [Compound 119]",< 30
16,"CNc1nc(Nc2cn(C3(C)CCOC3=O)nc2Cl)ncc1C(F)(F)F (single isomer, unassigned) [Compound 123]",< 30
17,"CNc1nc(Nc2cn(C3(C)CCOC3=O)nc2C)ncc1C(F)(F)F (single isomer, unassigned) [Compound 124]",< 30
18,"CCN1CCC(F)(F)C(n2ncc(Nc3ncc(C(F)(F)F)c(NC)n3)c2Cl)C1 (single isomer, unassigned) [Compound 202]",< 30
19,"CCN1CCC(F)(F)C(n2ncc(Nc3ncc(C(F)(F)F)c(NC)n3)c2Cl)C1 (single isomer, unassigned) [Compound 203]",< 30
20,CNc1nc(Nc2cnn(C3CC4CCC(C3)N4C)c2C)ncc1C(F)(F)F (stereo not shown) [Compound 1],< 30
21,CNc1nc(Nc2cn(C3CC4CCC(C3)N4C)nc2C)ncc1C(F)(F)F (stereo not shown) [Compound 2],> 60
22,CNc1nc(Nc2cnn(C3CC4(COC4)C3)c2Cl)ncc1C(F)(F)F [Compound 13],< 30
23,CNc1nc(Nc2cn(C(C)(C)c3ncn(C)n3)nc2C)ncc1C(F)(F)F [Compound 14],< 30
24,CNc1nc(Nc2cn(C(C)(C)c3ccn(C)n3)nc2C)ncc1C(F)(F)F [Compound 15],< 30
25,CNc1nc(Nc2cnn3c2OCC2(CC2)C3)ncc1C(F)(F)F [Compound 17],< 30
26,CCNc1nc(Nc2cn(C(C)(C)c3ccn(C)n3)nc2C)ncc1C(F)(F)F [Compound 18],< 30
27,Cc1nn(C(C)(C)C#N)cc1Nc1nc2c(c(C3CC3)n1)C1(CC1)CN2 [Compound 19],< 30

# Continued, values first:
row,IC50 [nM],SMILES
1,< 30,"CCNc1nc(Nc2cnn3c2CC(C#N)C3)ncc1C(F)(F)F (single isomer, unassigned) [Compound 52A]"
2,< 30,"CCNc1nc(Nc2cnn3c2CC(C#N)C3)ncc1C(F)(F)F (single isomer, unassigned) [Compound 52B]"
3,< 30,"CCNc1nc(Nc2cnn(C3CCCN(CC(F)F)C3)c2C)ncc1C(F)(F)F (single isomer, unassigned) [Compound 92]"
4,< 30,"CCNc1nc(Nc2cn(C3(C)CCOC3=O)nc2C)ncc1C(F)(F)F (single isomer, unassigned) [Compound 100]"
5,< 30,"Cc1nn(C2(C)CCOC2=O)cc1Nc1ncc(C(F)(F)F)c(C2CC2)n1 (single isomer, unassigned) [Compound 103]"
6,< 30,"CNc1nc(Nc2cn(C3(C)CCOC3=O)nc2C2CC2)ncc1C(F)(F)F (single isomer, unassigned) [Compound 113]"
7,< 30,"CCNc1nc(Nc2cnn(C3CCCN(CC(F)F)C3)c2C)ncc1C(F)(F)F (single isomer, unassigned) [Compound 116]"
8,< 30,"CCNc1nc(Nc2cn(C3(C)CCOC3=O)nc2Cl)ncc1C(F)(F)F (single isomer, unassigned) [Compound 117]"
9,< 30,"Cc1nn(C2(C)CCOC2=O)cc1Nc1ncc(C(F)(F)F)c(C2CC2)n1 (single isomer, unassigned) [Compound 120]"
10,< 30,"CCNc1nc(Nc2cn(C3(C)CCOC3=O)nc2C)ncc1C(F)(F)F (single isomer, unassigned) [Compound 125]"
11,< 30,"CCNc1nc(Nc2cnn(C3CNCCC3(F)F)c2C)ncc1C(F)(F)F (single isomer, unassigned) [Compound 200]"
12,< 30,"CCNc1nc(Nc2cnn(C3CNCCC3(F)F)c2C)ncc1C(F)(F)F (single isomer, unassigned) [Compound 201]"
13,< 30,"CCNc1nc(Nc2cnn(C3CN(CC)CCC3(F)F)c2Cl)ncc1C(F)(F)F (single isomer, unassigned) [Compound 204]"
14,< 30,"CCNc1nc(Nc2cnn(C3CN(CC)CCC3(F)F)c2Cl)ncc1C(F)(F)F (single isomer, unassigned) [Compound 205]"
15,< 30,"CCNc1nc(Nc2cn(C3C[C@@H]3C#N)nc2Cl)ncc1C(F)(F)F (single isomer, unassigned) [Compound 206]"
16,< 30,"CCNc1nc(Nc2cn(C3C[C@H]3C#N)nc2Cl)ncc1C(F)(F)F (single isomer, unassigned) [Compound 207]"
17,< 30,"CNc1nc(Nc2cn(C3C[C@@H]3C#N)nc2C2CC2)ncc1C(F)(F)F (single isomer, unassigned) [Compound 208]"
18,< 30,"CNc1nc(Nc2cn(C3C[C@H]3C#N)nc2C2CC2)ncc1C(F)(F)F (single isomer, unassigned) [Compound 209]"
19,< 30,"N#C[C@@H]1CC1n1cc(Nc2ncc(C(F)(F)F)c(NCC(F)F)n2)c(C2CC2)n1 (single isomer, unassigned) [Compound 210]"

row,IC50 [nM],SMILES
1,< 30,"N#C[C@@H]1CC1n1cc(Nc2ncc(C(F)(F)F)c(NCC(F)F)n2)c(C2CC2)n1 (single isomer, unassigned) [Compound 211]"
2,< 30,"COc1nc(Nc2cn(C3C[C@H]3C#N)nc2C2CC2)ncc1Br (single isomer, unassigned) [Compound 213]"
3,< 30,"CCNc1nc(Nc2cn(C3C[C@@H]3C#N)nc2C2CC2)ncc1Br (single isomer, unassigned) [Compound 214]"
4,< 30,"CCNc1nc(Nc2cn(C3C[C@H]3C#N)nc2C2CC2)ncc1Br (single isomer, unassigned) [Compound 215]"
5,< 30,"CCNc1nc(Nc2cn(C3(CF)CCOC3=O)nc2C)ncc1C(F)(F)F (single isomer, unassigned) [Compound 216]"
6,< 30,"CCNc1nc(Nc2cn(C3(CF)CCOC3=O)nc2C)ncc1C(F)(F)F (single isomer, unassigned) [Compound 217]"
7,< 30,CNc1nc(Nc2cn(C3C[C@@H]4C[C@@H]4C3)nc2C)ncc1C(F)(F)F (stereo partly shown) [Compound 3]
8,< 30,CNc1nc(Nc2cnn(C3C[C@@H]4C[C@@H]4C3)c2C)ncc1C(F)(F)F (stereo partly shown) [Compound 4]
9,< 30,Cc1nn(C(C)(C)C#N)cc1Nc1ncc(C(F)(F)F)c(NC2C3CC2C3)n1 (stereo not shown) [Compound 5]
10,> 60,CNc1nc(Nc2cn(CC34CC(C#N)(C3)C4)nc2C)ncc1C(F)(F)F [Compound 6]
11,< 30,CNc1nc(Nc2cnn(CC34CC(C#N)(C3)C4)c2C)ncc1C(F)(F)F [Compound 7]
12,< 30,CNc1nc(Nc2cnn3c2CC2(CC2)C3)ncc1C(F)(F)F [Compound 8]
13,< 30,CNc1nc(Nc2cnn(C3C[C@@H]4[C@H](C3)C4(F)F)c2Cl)ncc1C(F)(F)F (stereo partly shown) [Compound 9]
14,> 60,CNc1nc(Nc2cn(C3C[C@@H]4[C@H](C3)C4(F)F)nc2Cl)ncc1C(F)(F)F (stereo partly shown) [Compound 10]
15,< 30,CNc1nc(Nc2cnn(C3C[C@@H]4[C@H](C3)C4(F)F)c2C)ncc1C(F)(F)F (stereo partly shown) [Compound 11]
16,< 30,CNc1nc(Nc2cn(C3C[C@@H]4[C@H](C3)C4(F)F)nc2C)ncc1C(F)(F)F (stereo partly shown) [Compound 12]
17,< 30,CNc1nc(Nc2cnn3c2CC2(COC2)C3)ncc1C(F)(F)F [Compound 16]
18,< 30,CCNc1nc(Nc2cnn3c2CC2(COC2)C3)ncc1C(F)(F)F [Compound 20]
